Read-outs that look alike come from different tables or passages of the source.

Experimental findings from patent US20240294551A1 (AMGEN INC., priority 2022, published 2024) are described below.

Assay [1] addresses His-tagged KRAS G12D protein (Homo sapiens (Human), UniProt P01116, G12D). The assay is described as follows: KRAS G12D TR-FRET Assay. It is filed as binding. In a few lines:
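Each incubation ran at room temperature: enzyme with compound for 30 minutes, peptide for one hour, and detection reagents (0.4 nM europium anti-6×His, 5 nM streptavidin-d2) for one hour more. Protein and peptide stocks were each diluted to 20 nM before addition.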
For orientation: TR-FRET usually uses a lanthanide donor and a delayed reading to cut background.

Assay [2] concerns the target GDP-bound KRAS protein (aa 1-169), containing both G12D and C118A amino acid substitutions (Homo sapiens (Human), UniProt P01116, C118A/G12D). The assay is described as follows: KRAS G12D Coupled Nucleotide Exchange Assay. It is filed as biochemical.
Assay [3] deals with Phosphorylation of ERK1/2 in AsPC-1 cells. As to the kind of experiment: Phospho-ERK1/2 MSD Assay. The settings on record: Homo sapiens, ASPC1, 2 h. It is filed as cell-based, human. In a few lines:
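Read-out: MSD electrochemiluminescent detection of phosphorylated ERK1/2 in whole-cell lysates, fitted to a 4-parameter logistic curve for IC50. Prior to lysis, AsPC-1 cells (25,000 per well) received a 2 h compound dose-response at 37 °C.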

Where [4] appears, read: read-out: KRAS G12D Binding IC50.
[5] abbreviates: read-out: KRAS G12D Coupled Exchange IC50.
[6] abbreviates: read-out: 2 h p-ERK (AsPC-1 cells), IC50.

GDP-bound KRAS protein (aa 1-169), containing both G12D and C118A amino acid substitutions, sequence (P01116 other isoform, or with tags, fused parts or gaps G12D/C118A): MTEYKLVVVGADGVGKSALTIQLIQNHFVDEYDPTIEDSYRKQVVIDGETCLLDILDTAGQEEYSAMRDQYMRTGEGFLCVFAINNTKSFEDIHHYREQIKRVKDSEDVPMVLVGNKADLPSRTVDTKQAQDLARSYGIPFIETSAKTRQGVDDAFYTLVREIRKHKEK
His-tagged KRAS G12D protein, sequence (P01116 other isoform, or with tags, fused parts or gaps G12D): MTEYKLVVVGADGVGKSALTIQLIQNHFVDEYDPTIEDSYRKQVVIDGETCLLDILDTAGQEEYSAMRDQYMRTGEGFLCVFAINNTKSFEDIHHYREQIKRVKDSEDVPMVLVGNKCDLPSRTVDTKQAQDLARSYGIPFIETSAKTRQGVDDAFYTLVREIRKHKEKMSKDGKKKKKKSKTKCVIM

In the case of `Fc1c2ncc3c(nc(OC[C@@]45CCCN4C[C@H](F)C5)nc13)N1CCOC[C@]3(C1)C[C@H](C3)OCCCCc1c(Cl)cc3[nH]ncc3c1-2` [Example 264, (1R,3R)-10-chloro-33-fluoro-24-(((2R,7aS)-2-fluorotetrahydro-1H-pyrrolo[1,2-a]pyrrol-7a(5H)-yl)methoxy)-4,30-dioxa-13,14,19,23,25,27-hexaazaheptacyclo[25.4.1.1~1,3~.1~18,22~.0~9,17~.0~12,16~.0~21,26~]tetratriaconta-9,11,14,16,18(33),19,21,23,25-nonaene], the figures for the IC50 in assay [1] (setting [4]), in assay [2] (setting [5]) and in assay [3] (setting [6]) were 38 nM, 24 nM and 368 nM, respectively.

Take `O=C1COCCc2c(Cl)cc3[nH]ncc3c2-c2ncc3c(nc(OC[C@@]45CCCN4C[C@H](F)C5)nc3c2F)N2CCCC[C@H](C2)N1` [Example 271, (26R)-18-chloro-32-fluoro-4-(((2R,7aS)-2-fluorotetrahydro-1H-pyrrolo[1,2-a]pyrrol-7a(5H)-yl)methoxy)-22-oxa-1,3,5,9,14,15,25-heptaazahexacyclo[24.4.1.1~6,10~.0~2,7~.0~11,19~.0~12,16~]dotriaconta-2,4,6,8,10(32),11,13,16,18-nonaen-24-one]: the IC50 turned out to be 13 nM in assay [1] (setting [4]), 2 nM in assay [2] (setting [5]) and 500 nM in assay [3] (setting [6]).

Turning to `CN1C(=O)OCCCc2c(Cl)cc3[nH]ncc3c2-c2ncc3c(nc(OC[C@@]45CCCN4C[C@H](F)C5)nc3c2F)N2C[C@@H](O)C[C@@H]1C2` [Example 286, (17R,19S)-9-chloro-30-fluoro-24-(((2R,7aS)-2-fluorotetrahydro-1H-pyrrolo[1,2-a]pyrrol-7a(5H)-yl)methoxy)-19-hydroxy-16-methyl-14-oxa-5,6,16,21,23,25,29-heptaazahexacyclo[24.3.1.1~17,21~.0~2,10~.0~3,7~.0~22,27~]hentriaconta-1(30),2,4,7,9,22,24,26,28-nonaen-15-one], the IC50 in assay [1] (setting [4]) worked out at 81 nM; in assay [2] (setting [5]) it was 15 nM; in assay [3] (setting [6]), 1250 nM.

Take `O=C1N[C@@H]2CCCCN(C2)c2nc(OC[C@@]34CCCN3C[C@H](F)C4)nc3c(F)c(ncc23)-c2c(c(Cl)cc3[nH]ncc23)CCCCO1` [Example 291, (27R)-18-chloro-33-fluoro-4-(((2R,7aS)-2-fluorotetrahydro-1H-pyrrolo[1,2-a]pyrrol-7a(5H)-yl)methoxy)-24-oxa-1,3,5,9,14,15,26-heptaazahexacyclo[25.4.1.1~6,10~.0~2,7~.0~11,19~.0~12,16~]tritriaconta-2,4,6(33),7,9,11,13,16,18-nonaen-25-one]: the IC50 came to 26 nM in assay [1] (setting [4]), 5 nM in assay [2] (setting [5]) and 1230 nM in assay [3] (setting [6]).

Turning to `Fc1c2ncc3c(nc(OC[C@@]45CCCN4C[C@H](F)C5)nc13)N1CCOC(C1)c1cnn(n1)CCCc1c(Cl)cc3[nH]ncc3c1-2` (stereo partly drawn) [Example 294, 9-chloro-31-fluoro-25-(((2R,7aS)-2-fluorotetrahydro-1H-pyrrolo[1,2-a]pyrrol-7a(5H)-yl)methoxy)-19-oxa-5,6,14,15,22,24,26,30,33-nonaazaheptacyclo[25.3.1.1~14,17~.1~18,22~.0~2,10~.0~3,7~.0~23,28~]tritriaconta-1(31),2,4,7,9,15,17(33),23,25,27,29-undecaene], the IC50 amounted to 20 nM in assay [1] (setting [4]), 9 nM in assay [2] (setting [5]) and 55.1 nM in assay [3] (setting [6]).

In the case of `C[C@]12C[C@]3(CN(CCO3)c3nc(OC[C@@]45CCCN4C[C@H](F)C5)nc4c(F)c(ncc34)-c3c(c(Cl)cc4[nH]ncc34)CCOC(=O)O1)C2` [Example 322, (1S,3S)-10-chloro-32-fluoro-24-(((2R,7aS)-2-fluorotetrahydro-1H-pyrrolo[1,2-a]pyrrol-7a(5H)-yl)methoxy)-3-methyl-4,6,30-trioxa-13,14,19,23,25,27-hexaazaheptacyclo[25.3.1.1~1,3~.1~18,22~.0~9,17~.0~12,16~.0~21,26~]tritriaconta-9,11,14,16,18(32),19,21,23,25-nonaen-5-one], the values for the IC50 in assay [1] (setting [4]), in assay [2] (setting [5]) and in assay [3] (setting [6]) were 366 nM, 156 nM and 589 nM, respectively.

Take `Cn1ncc2cc(Cl)c3c(c21)-c1ncc2c(nc(OC[C@@]45CCCN4C[C@H](F)C5)nc2c1F)N1CCOC[C@H](C1)OC(=O)OCCC3` [Example 335, (26S)-18-chloro-32-fluoro-4-(((2R,7aS)-2-fluorotetrahydro-1H-pyrrolo[1,2-a]pyrrol-7a(5H)-yl)methoxy)-13-methyl-23,25,28-trioxa-1,3,5,9,13,14-hexaazahexacyclo[24.4.1.1~6,10~.0~2,7~.0~11,19~.0~12,16~]dotriaconta-2,4,6,8,10(32),11,14,16,18-nonaen-24-one]: the IC50 in assay [1] (setting [4]) was determined as 44 nM; in assay [2] (setting [5]), 9 nM; in assay [3] (setting [6]), 1260 nM.

As for `O=C1OCCCc2c(Cl)cc3[nH]ncc3c2-c2ncc3c(nc(OC[C@@]45CCCN4C[C@H](F)C5)nc3c2F)N2CCCC[C@@](CF)(C2)O1` [Example 339, (26S)-18-chloro-32-fluoro-26-(fluoromethyl)-4-(((2R,7aS)-2-fluorotetrahydro-1H-pyrrolo[1,2-a]pyrrol-7a(5H)-yl)methoxy)-23,25-dioxa-1,3,5,9,14,15-hexaazahexacyclo[24.4.1.1~6,10~.0~2,7~.0~11,19~.0~12,16~]dotriaconta-2,4,6,8,10(32),11,13,16,18-nonaen-24-one], the IC50 amounted to 1350 nM in assay [1] (setting [4]), 501 nM in assay [2] (setting [5]) and 826 nM in assay [3] (setting [6]).

As to `CN1CCN(c2nc3c4cnc(c(F)c4n2)-c2c(c(Cl)cc4[nH]ncc24)CCCOC(=O)O[C@@H]2COCCN3C2)CC1` [Example 347, (26S)-18-chloro-32-fluoro-4-(4-methyl-1-piperazinyl)-23,25,28-trioxa-1,3,5,9,14,15-hexaazahexacyclo[24.4.1.1~6,10~.0~2,7~.0~11,19~.0~12,16~]dotriaconta-2,4,6,8,10(32),11,13,16,18-nonaen-24-one], the IC50 in assay [1] (setting [4]) is 27 nM; in assay [2] (setting [5]) it was 7 nM; in assay [3] (setting [6]), 200 nM.

On to `Cc1cc2[nH]ncc2c2c1CCOC(=O)O[C@H]1C[C@]3(CCCN(C3)c3nc(OC[C@@]45CCCN4C[C@H](F)C5)nc4cc-2nnc34)C1` [Example 358, (1R,3S)-24-(((2R,7aS)-2-fluorotetrahydro-1H-pyrrolo[1,2-a]pyrrol-7a(5H)-yl)methoxy)-10-methyl-4,6-dioxa-13,14,19,20,23,25,27-heptaazaheptacyclo[25.3.1.1~1,3~.1~18,22~.0~9,17~.0~12,16~.0~21,26~]tritriaconta-9,11,14,16,18(32),19,21,23,25-nonaen-5-one], for which the IC50 is 24 nM in assay [1] (setting [4]), 16 nM in assay [2] (setting [5]) and 384 nM in assay [3] (setting [6]).

Consider `CN1CCC(Oc2nc3c4cnc(c(F)c4n2)-c2c(c(Cl)cc4[nH]ncc24)CCCOC(=O)O[C@@H]2COCCN3C2)CC1.O=C(O)C(F)(F)F` [Example 370, (26S)-18-Chloro-32-fluoro-4-((1-methyl-4-piperidinyl)oxy)-23,25,28-trioxa-1,3,5,9,14,15-hexaazahexacyclo[24.4.1.1˜6,10˜.0˜2,7˜.0˜11,19˜.0˜12,16˜]dotriaconta-2,4,6,8,10(32),11,13,16,18-nonaen-24-one trifluoroacetate], for which the IC50 in assay [1] (setting [4]) was found to be 36 nM; in assay [2] (setting [5]), 18 nM; in assay [3] (setting [6]), 708 nM.

With `O=C1OCCc2c(F)ccc3cccc(c23)-c2ncc3c(nc(OC[C@@]45CCCN4C[C@H](F)C5)nc3c2F)N2CCOC[C@H](C2)O1` [Example 371], the values for the IC50 in assay [1] (setting [4]), in assay [2] (setting [5]) and in assay [3] (setting [6]) were 8 nM, 4 nM and 239 nM, respectively.

For `Fc1c2ncc3c(nc(OC[C@@]45CCCN4C[C@H](F)C5)nc13)N1CCC[C@H](C1)c1cnc(o1)CCCc1c(Cl)cc3[nH]ncc3c1-2` [Example 387, (18R)-9-chloro-31-fluoro-25-(((2R,7aS)-2-fluorotetrahydro-1H-pyrrolo[1,2-a]pyrrol-7a(5H)-yl)methoxy)-33-oxa-5,6,15,22,24,26,30-heptaazaheptacyclo[25.3.1.1~14,17~.1~18,22~.0~2,10~.0~3,7~.0~23,28~]tritriaconta-1(31),2,4,7,9,14,16,23,25,27,29-undecaene], the IC50 in assay [1] (TR-FRET, read-out: KRAS G12D Binding) was determined as 8 nM; in assay [2] (2 hours compound pre-incubation, read-out: KRAS G12D Coupled Exchange), 4 nM; in assay [3] (read-out: 2 h p-ERK (AsPC-1 cells)), 66.3 nM.
